Measured values reported in US11129782B2, “Derivatives of PPD useful for coloring hair and skin” (National University of Singapore, priority 2017, dated 2021).
“And” between values parts separate entries of the source, which are not always exact repeats. Equal entries are not always repeated. Where two headings read alike, the source gives them in different places.

Legend:
[1] = tested on: cysteine and lysine peptides; experiment: Direct Peptide Reactivity Assay, mean of cysteine and lysine depletion (FIG. 12); settings: for Mean peptide depletion: mean of cysteine (1:10) and lysine (1:50), FIG. 12; for Sensitizing potential predicted from mean peptide depletion: cysteine 1:10 / lysine 1:50 model
Description: (§4) Direct reactivity of test chemical to lysine-based synthetic peptide was determined in reactions containing 100 mM ammonium acetate buffer (pH 10.2). The final concentration of lysine peptide was 20 μM in a final reaction volume of 0.3 ml. Direct reactivity of test chemicals to cysteine-based synthetic peptide was determined in 100 mM Sodium Phosphate buffer of pH 7.5.
(§5) For the DPRA, incubation mixtures were prepared using each peptide to test compound ratios of both 1:10 for cysteine peptide and 1:50 for lysine peptide, according to Table 19. […] Sample reactions were initiated by adding 3 μl of a test chemical stock solution for cysteine and 15 μl stock solution for lysine peptide. These mixtures were then placed in a temperature-controlled shaking incubator at 25° C.
(§6) At each time point (20 mins/24 hours), the incubation mixtures were quenched with 75 μL of 95% ACN/H2O, and mildly vortexed (600 rpm, 3 seconds). For Lysine DPRA experiment, 10 μl of aliquot was diluted with 2% ACN/H2O, vortexed and stored at −80° C. until analysis by LC-MS/MS. For cysteine DPRA, an additional step was performed. 10 μl of cysteine reaction mixture, at time points 20 min and 24 h were diluted in 180 μl of 2% ACN/H2O. To which, a 10 μl aliquot of a 16 mM dithiothreitol solution (prepared in water) was then added, and samples were heated in a 45° C. oven for 30 min, then allowed to cool to room temperature prior to analysis. The peptide depletion (PD) percentage was obtained using this equation.

HaCaT cells = experiment: In vitro cell cytotoxicity (MTT) assay on HaCaT cells; assay type: cell-based, human; settings: for IC50: 72 h incubation, MTT
From the text: HaCaT (human, adult, low calcium, high temperature, human adult skin keratinocytes) cells were obtained from the IMB (Institute of Medical Biology) Skin Cell Bank. Fetal bovine serum (FBS), Dulbecco's minimum essential medium (DMEM) and trypsin EDTA solution were purchased from GE healthcare life sciences, Utah. Penicillin/streptomycin, dimethyl sulfoxide (DMSO), and phosphate buffered saline (PBS) were from Fisher Scientific (Singapore). Para-phenylenediamine (PPD) was purchased from Sigma Aldrich (Singapore). PPD analogues such as Dimer, trimer, ethyl hexyl para-phenylenediamine (EHPPD), hexyl para-phenylenediamine (HPPD), Bandrowski base (BB) were synthesized in house.
Cell viability was essentially determined using the MTT assay as described in the literature. The HaCaT cells were grown in DMEM with 10% FBS and 1% penicillin/streptomycin. The cells in T-75 cm^2 culture flasks were incubated with 5% CO2 at 37° C. in a humidified incubator. The HaCaT cells were grown to expected confluency and then they were harvested by trypsinizing the cell with 0.25% trypsin/EDTA and incubated at 37° C. for 5 min to obtain the complete cell detachment. After the incubation, cell pellets were resuspended, and washed twice with 1×PBS. The cell suspension in 1×PBS was counted and adjusted to 1×10^5/mL. A HaCaT keratinocyte suspension (100 μL in 1×PBS) with a cell concentration of 1×10^5 cells/mL) and a test solution (100 μL in milli-Q water) were combined in each well of two 96-well plates. Test solutions with a desired concentration were prepared by serial dilutions of the stock solutions with 1×PBS.
For the cytotoxicity experiment, cells were seeded at a density of 5×10^3 in 200 ul of medium into each well of 96-well plates. Cells were seeded as three sets of four replicates for each concentration. After 24 h of incubation, the cells were washed with PBS and cultured for 72 h with 200 ul of 10% FBS containing DMEM medium, together with the different concentrations of the test compounds ranging from 500 μM to 1.9 μM for PPD and analogues 1-5 and standard in a serial dilution. Then the medium was removed and 100 μl of MTT [3-(4,5-dimethylthiazol-2yl)-2,5-diphenyl-2H-tetrazolium bromide](1 mg/ml) (Alfa Aesar, Singapore) in PBS was added. At the end of 4 h incubation, the plates were removed from the incubator and plates were shaken for 5 min. The absorbance at 570 nm was determined using Bio-Tek plate reader. The cell viability rates were calculated from absorbance readings and represented as percentages of control value (untreated cells).

[2] = tested on: cysteine and lysine peptides
Description: as §4, §5, §6

IL-8 = IL-8 ELISA on THP-1 cell supernatants; assay type: cell-based, human; settings: preliminary ELISA, CV75
Description: (§1) For cytokine profiling in THP-1, supernatants from wells were collected and then used for cytokine analysis by a Chemokine immunosorbent assay Bio-legend ELISA Max kit. The levels of available IL-8 protein from THP-1 cell supernatants was estimated using this kit which are regulated upon activation of THP-1 model. Surface receptor expression of human CD-86, CD-54, MHC-I and IL-T3 were analyzed by flow cytometry using standard BD FACS analyzer with PE and FITC fluorescent labeled antibodies from Biolegend and e Bioscience.
(§2) In order to understand the effect of modified PPD hairdyes on THP-1 immune sensitization, a certain degree of Cytotoxicity at CV75% viable where 25% cell death is required before evaluation of supernatants in THP-1 models for expression of cytokine IL-8 and receptor expression of CD86, CD54, MHC-I and IL-T3 surface receptors upon treatment with standard PPD and modified hair dye compounds. Most allergens show a specific dose-dependent alteration of CD86 and/or CD54 expression or secretion of cytokine profiles. But depending on chemical, the alteration pattern may vary.

ILT3 = ILT3 surface expression on THP-1 by flow cytometry; assay type: cell-based, human; settings: in comparison to DCNB
Description: as §1, §2

CD54 = CD54 surface expression on THP-1 by flow cytometry; assay type: cell-based, human
Description: as §1, §2

[3] = Skin permeation in vertical Franz diffusion cells; assay type: in vitro ADME, porcine; settings: 8 h; for recovery at 8 h, 1 % w/v: pig, read-out: % Parent compound Recovery (mean); for Penetration profile PPD vs derivatives (times less than PPD): ratio of PPD penetration to that of the compound
Description: Porcine ears were generously provided by the NUS Department of Surgery. The ears were frozen at −80° C. until use (up to 3 months) and thawed at room temperature on the day preceding the experiment. Prior to the experiment, the skin was separated from the cartilage and dermatomed to a thickness of ˜1.0 mm using an Acculan™ 3Ti dermatome (Aesculap, Inc., B. Braun, USA).
The PPD and derivatives were dissolved in deionized water at 1% w/v. The PPD and PPD derivatives 1-5 solutions were purged with argon gas to minimize oxidation of the donor solution.
Skin penetration studies were carried out using vertical Franz diffusion cells (PermeGear, USA) immersed in a 37° C. water bath. The donor and receptor volumes were 900 µL and 5 mL, respectively; the mean surface area of penetration was 0.64 cm^2. Upon insertion of the skin pieces into the Franz cells, the skin was equilibrated for 45 min with PBS in the receptor compartment. After equilibration, the skin's trans-epidermal water loss (TEWL) was measured using an Aquaflux AF300 (Biox, UK) to assess the integrity of the skin's stratum corneum barrier. The donor solution, consisting of PPD or derivative 1-5 (n=3 Franz cells each), was then added to the donor compartment and the penetration experiments were conducted for 8 h. The receptor solutions were continuously stirred with magnetic stirrers. At fixed time points, aliquots of 200 μL were taken from the receptor solution of each cell and the receptor solution topped up with 200 μL of fresh PBS. At the end of the experiment, the donor and receptor solutions were removed and the cells dismantled. For the purpose of mass balance on the PPD, PPD derivatives 1-5 the skin pieces and swabs of their outer surfaces were collected and stored in acetonitrile for PPD or derivative 1-5 extraction. The donor solution as well as PBS used to thoroughly wash each part of the Franz cells were also collected.
PPD, PPD derivatives 1-5 and metabolite concentrations in all permeation and mass balance samples were measured by LCMS. PPD steady state fluxes and permeability coefficients were calculated by fitting the solution to Fick's second law of diffusion at the steady state to the linear part of each experimental cumulative amount curve.
The validated method LCMS was applied to quantify PPD, PPD derivative 1-5 and metabolites from skin permeation study samples. FIGS. 3 and 4 show LCMS spectra for the identification of PPD and PPD derivatives 1 and 2 and metabolites from skin permeation study experiment.

CD86 = CD86 surface expression on THP-1 by flow cytometry; assay type: cell-based, human
Description: as §1, §2

[4] = tested on: lysine peptide (Ac-RFAAKAA-COOH); experiment: Direct Peptide Reactivity Assay, lysine peptide; settings: for % of Lysine depletion, Avg / % of Lysine depletion, Rep 2 / % of Lysine depletion, Rep 3 / Reactivity Class: 1:50; for % of Lysine depletion, Rep 1: peptide 0.02 mM : test chemical 1 mM (1:50); for Reactivity Class: lysine
Description: (§3) The mass spectrometric analysis was performed by use of a AB SCIEX QTRAP 5500 tandem mass spectrometry (MS/MS) system (AB SCIEX, Framingham, Mass., USA) operating in triple quadrupole positive mode (ESI+) equipped with an AB Sciex Turbo Ion Spray interface. Acquisition and analysis of data were performed with Analyst software ver. 1.6.2 (Applied Biosystems).

[5] = Solubility observed when preparing dyes; assay type: physicochemical; settings: water / organic solvents
[6] = tested on: cysteine peptide (Ac-RFAACAA-COOH); experiment: Direct Peptide Reactivity Assay, cysteine peptide; settings: for % of Cysteine depletion, Avg / % of Cysteine depletion, Rep 2 / % of Cysteine depletion, Rep 3 / Reactivity Class: 1:10; for % of Cysteine depletion, Rep 1: peptide 0.02 mM : test chemical 0.2 mM (1:10); for Reactivity Class: cysteine
Description: For cysteine DPRA, an additional step was performed.
as §3

| Structure (SMILES) | Mean peptide depletion [1] [%] | IC50 (HaCaT cells) [µM] | Sensitizing potential predicted from mean peptide depletion [2] | IL-8 expression (IL-8) | ILT3 (inhibitory receptor) expression (ILT3) | Expression of CD54 (CD54) | % Parent compound Penetrated (mean) ([3]; 1% W/V applied) [%] | % converted to metabolite (mean) ([3]; 1% W/V applied) [%] | Permeation less than PPD [3] | recovery at 8 h, 1 % w/v ([3]; 1% W/V applied) [%] | Penetration profile PPD vs derivatives (times less than PPD) [3] | IC50 (HaCaT cells; Homo sapiens, HaCaT, 72 h) [µM] | Expression of CD86 (CD86) | % of Lysine depletion, Avg ([4]; 20 min) [%] | % of Lysine depletion, Rep 2 ([4]; 20 min) [%] | % of Lysine depletion, Rep 3 ([4]; 20 min) [%] | % of Lysine depletion, Rep 1 ([4]; 20 min) [%] | % of Lysine depletion, Avg ([4]; 24 h) [%] | % of Lysine depletion, Rep 2 ([4]; 24 h) [%] | % of Lysine depletion, Rep 3 ([4]; 24 h) [%] | other results |
| --- | --- | --- | --- | --- | --- | --- | --- | --- | --- | --- | --- | --- | --- | --- | --- | --- | --- | --- | --- | --- | --- |
| Cc1ccc(NCc2ccc(-c3ccc(Nc4ccc(N)cc4)cc3)cc2)cc1 [PPD derivative 9, 4-Amino-4′-[(4-tolylaminomethyl)phenyl]diphenylamine] | 17.9 | 6.8 | weak sensitizer | – | – | – | – | – | – | – | – | – | – | – | – | – | – | – | – | – | – |
| Nc1ccc(Nc2ccc(Nc3ccc(Nc4ccc(N)cc4)cc3)cc2)cc1 [PPD derivative 8, 4,4′-Bis[(4-aminophenyl)amino]diphenylamine] | – | 6.92 | high sensitizing agents | increased expression | – | – | – | – | – | – | – | – | – | – | – | – | – | – | – | – | – |
| CCCCCCOC(=O)c1cc(Nc2ccc(N)cc2)ccc1N [PPD derivative 6, hexyl 2-amino-5-((4-aminophenyl)amino)benzoate] | – | – | – | do not stimulate IL-8 expression | increased | not stimulated | 0.00015 | 0.01 | about 2 order of magnitude | 95.4 | 1080 | 10.5 | not stimulated | – | – | – | – | – | – | – | – |
| Nc1ccc(Nc2ccc(N)cc2)cc1 [PPD derivative 1, 4,4′-Diaminodiphenylamine] | – | 49.3 | – | increased expression | – | – | 0.00314 | 0.0104 | – | – | – | – | – | 7.79 | 6.48 | 9.01 | 7.89 | 23.8 | 28 | 22.3 | % of Lysine depletion, Rep 1 ([4]; 24 h): 21%; Reactivity Class ([4]; 20 min): Low; Reactivity Class ([4]; 24 h): Moderate; Sensitizing potential predicted from mean peptide depletion [1]: high sensitizing agents; Solubility (in words) [5]: showed solubility in a mixture of 10% methanol in water; % Parent compound Recovery (mean) ([3]; 1% W/V applied): 93.85%; Penetration profile PPD vs derivatives (times less than PPD) ([3]; listed as PPD 1): 51 and 51.6; Fold increase in IC50 compared to PPD (HaCaT cells): ~2 fold; % of Cysteine depletion, Avg ([6]; 20 min): 41.5%; % of Cysteine depletion, Rep 2 ([6]; 20 min): 40.5%; % of Cysteine depletion, Rep 3 ([6]; 20 min): 41.5%; % of Cysteine depletion, Rep 1 ([6]; 20 min): 42.6%; % of Cysteine depletion, Avg ([6]; 24 h): 69.4%; % of Cysteine depletion, Rep 2 ([6]; 24 h): 69.6%; % of Cysteine depletion, Rep 3 ([6]; 24 h): 69.3%; % of Cysteine depletion, Rep 1 ([6]; 24 h): 69.5%; Reactivity Class ([6]; 20 min): Moderate; Reactivity Class ([6]; 24 h): High |
| NC1=CC(=Nc2ccc(N)cc2)C(N)=CC1=Nc1ccc(N)cc1 [Bandrowski Base, reference compound] | 38.9 | 6.09 | – | increased expression | – | – | – | – | – | – | – | – | – | 6.7 | 7.89 | 2.54 | 9.58 | 5.6 | 6.0 | 5.5 | % of Lysine depletion, Rep 1 ([4]; 24 h): 5.4%; Reactivity Class ([4]; 20 min): Low; Reactivity Class ([4]; 24 h): Low; Sensitizing potential predicted from mean peptide depletion [1]: moderate sensitizer; Solubility (in words) [5]: limited solubility in water; % of Cysteine depletion, Avg ([6]; 20 min): 44.2%; % of Cysteine depletion, Rep 2 ([6]; 20 min): 44.5%; % of Cysteine depletion, Rep 3 ([6]; 20 min): 45.5%; % of Cysteine depletion, Rep 1 ([6]; 20 min): 42.5%; % of Cysteine depletion, Avg ([6]; 24 h): 70.7%; % of Cysteine depletion, Rep 2 ([6]; 24 h): 69.9%; % of Cysteine depletion, Rep 3 ([6]; 24 h): 70.4%; % of Cysteine depletion, Rep 1 ([6]; 24 h): 71.8%; Reactivity Class ([6]; 20 min): High; Reactivity Class ([6]; 24 h): High |
| CCCCCCOC(=O)c1cc(N)ccc1N [PPD derivative 15, Hexyl-2,5-diaminobenzoate] | – | – | – | do not stimulate IL-8 expression | increased | not stimulated | 0.0001 | 0.0108 | about 2 order of magnitude | 96.7 | 1620 | 160 | not stimulated | – | – | – | – | – | – | – | Improvement of cell viability in comparison to PPD 4 (HaCaT cells): about 5 times |
